Test results from patent US20220095617A1, “PLANT GROWTH REGULATING AGENT” (IDEMITSU KOSAN CO.,LTD., priority 2019, published 2022).

Columns and labels:
lettuce (Green Wave) [1] = assay: Example 1: High-temperature stress Petri dish test (lettuce), comparison with other natural products; type: in vivo; conditions: 0.1 ppm in agar medium
lettuce (Green Wave) [2] = assay: Example 3: High-temperature stress Petri dish test (lettuce), blending with β-carotene; type: in vivo; conditions: 0.1 ppm
Cabbage (Okina) seeds = assay: Example 6: High-temperature stress Petri dish test (cabbage seeds); type: in vivo; conditions: for Germination rate, Increase rate / Root length, Increase rate: non-addition group = 100.0; for Root length, Average: after high-temperature treatment; for Germination rate, Average: seeds 52° C. hot water 25 minutes, 23° C. 4 days
Description: Cabbage (Okina, Takii & Co., Ltd.) seeds were soaked in hot water at 52° C. for 25 minutes to perform high-temperature treatment. […] A group similarly soaked in distilled water was provided as a non-addition group. After the soaking treatment, the seeds were dried in air, and then 20 seeds were sown on each of shallow Petri dishes in which qualitative filter paper was placed. To the filter paper in each Petri dish, 3 mL of distilled water was uniformly added dropwise. […] For each group, three measurement results were obtained for the germination rate (N=3), and 15 measurement results were obtained for the root length (N=15).

lettuce (Green Wave) [3] = assay: Example 9: High-temperature stress pot test (lettuce); type: in vivo; conditions: for Fresh weight of above-ground part, Increase rate / Fresh weight of underground part, Increase rate: non-addition group = 100.0; for Fresh weight of above-ground part, Average / Fresh weight of underground part, Average: greenhouse 35° C., 20 days
Description: Immediately after the sowing, drenching treatment was carried out with 5 ml/well of a dilution of hesperidin prepared at a final concentration of 100 to 1000 ppm (using water as the solvent). A non-addition group was similarly subjected to drenching treatment using distilled water. High-temperature treatment was carried out by cultivation for 20 days in a greenhouse where the average daytime temperature was 35° C., and then the fresh weight of the above-ground part and the fresh weight of the underground part were evaluated. For each group, 15 to 20 measurement results were obtained (N=15 to 20).

Cabbage (Okina) = assay: Example 10: High-temperature stress pot test (cabbage); type: in vivo; conditions: for Fresh weight of above-ground part, Increase rate / Fresh weight of underground part, Increase rate: non-addition group = 100.0; for Fresh weight of above-ground part, Average / Fresh weight of underground part, Average: greenhouse 35° C., 30 days
Description: Cabbage (Okina, Takii & Co., Ltd.) was sown on a cell tray filled with seedling culture soil (manufactured by Nihon Hiryo Co., Ltd.; “Naebijin N100”). […] Cultivation was carried out in a greenhouse (average daytime temperature, 35° C.) for 30 days, and then the fresh weight of the above-ground part and the fresh weight of the underground part were evaluated. For each group, 15 to 20 measurement results were obtained (N=15 to 20).

[4] = system: Zoysia tenuifolia (Korean velvet grass); assay: Example 12: Low-temperature stress field test (lawn grass); type: in vivo; conditions: for Number of sprouts, Average: three months after final spraying, low temperature; for Number of sprouts, Increase rate: non-addition group = 100.0
Description: In the research institute, a wettable powder formulation containing 1% hesperidin having the formulation composition shown in Table 11 was applied a total of four times by foliar spraying at a ratio of 0.15 to 0.75 g/m^2 (amount of water sprayed, 250 ml) every other week from late October to late December in 2017. Three months after the final spraying, the lawn grass was collected using a hole cutter, and the number of sprouts was measured. For each group, three measurement results were obtained (N=3).
In the period from November 2017 to March 2018, the highest temperature was 16.6° C.; the lowest temperature was −3.7° C.; and the average temperature was 6.0° C. Since the optimum growth temperature of Zoysia tenuifolia (Korean velvet grass) is 24 to 35° C., and it enters a period of dormancy at 10° C. or less, the plant was judged to have been affected by the low-temperature stress.

[5] = system: Cucumber (Hanjirofushinari); assay: Example 13: Salt stress pot test (cucumber); type: in vivo; conditions: foliar spraying 1 ppm (dilution of wettable powder formulation)
Description: Cucumber (Hanjirofushinari, Takii & Co., Ltd.) was sown on pots filled with seedling culture soil (manufactured by Katakura & Co-op Agri Corporation; Kumiai seedling culture soil for gardening Genkikun No. 1) (soil volume, 100 ml), and cultivated for 21 days. With a wettable powder formulation containing 1% hesperidin having the formulation composition shown in Table 11, a dilution was prepared such that the final concentration of hesperidin was 1 ppm. For each pot, 10 ml of the dilution was applied by foliar spraying. The cucumber was left to stand in a dilution whose final NaCl concentration was adjusted to 75 mM, and allowed to absorb water from the bottom. Cultivation was carried out in a greenhouse (20 to 25° C.) for 7 days, and then the fresh weight of the above-ground part was measured. For each group, six measurement results were obtained (N=6).

Wheat (Satonosora) = assay: Example 15: Growth-promoting effect (wheat); type: in vivo; conditions: for Increase/decrease of above-ground part / Increase/decrease of underground part: non-addition group = 100%; for Weight of above-ground part FW / Weight of underground part FW: 25° C., 14 days
Description: Wheat (Satonosora) was sown on pots filled with seedling culture soil (manufactured by Katakura & Co-op Agri Corporation; Kumiai seedling culture soil for gardening Genkikun No. 1) (soil volume, 100 ml). After […] of the germination, drenching treatment was carried out with 5 ml each of dilutions of hesperidin prepared at final concentrations of 10 to 33 ppm (using water as the solvent). […]

tomato (Momotaro Home) = assay: Example 24: Dry stress Petri dish test (tomato); type: in vivo; conditions: Dry stress (20 g/L polyethylene glycol); for Root length, Average: 28° C., 12 days; for Root length, Increase rate: non-addition group = 100.0
Source text: For each group, three measurement results were obtained (N=3).

lettuce (Green Wave) [6] = assay: Example 2: High-temperature stress Petri dish test (lettuce), blending with neohesperidin; conditions: 0.1 ppm
Description: For seeds, 2% water agar medium (using water as the solvent), which was prepared such that hesperidin (Fujifilm Wako Pure Chemical Corporation; special-grade reagent) and neohesperidin (Fujifilm Wako Pure Chemical Corporation; special-grade reagent) were contained at the predetermined final concentrations shown in Table 2, was filled into square Petri dishes (“model number: D-210-16”, manufactured by As One Corporation). Before high-temperature treatment, lettuce (Green Wave, Takii & Co., Ltd.) was sown on 2% water agar medium, and lettuce seedlings on day 2 after the sowing were transplanted to the above-described agar medium to which the hesperidin and/or the like was/were added. At the time of the transplantation, the tip of the root was marked. Each Petri dish after the transplantation was placed in an incubator (“model number: FLI-2010A”, manufactured by EYELA) at an angle of 45° with respect to the bottom surface, and high-temperature treatment was carried out at 42° C. for 1.5 hours. Thereafter, culture was similarly performed at 23° C. for 2 days, and then the increase in the root length was evaluated in terms of elongation from the tip of the root of each seedling at the time of the transplantation. In addition, for evaluation of the effect of the mixture of hesperidin and neohesperidin in normal cultivation, culture was similarly performed at 23° C. without performing the high-temperature treatment, followed by evaluation of the increase in the root length. […] The Colby's equation is as follows.
E=(x+y)−(x·y)/100 Colby's equation:
E: Expected root length x: Root length in the case of application of hesperidin alone y: Root length in the case of application of neohesperidin alone For each group, 15 measurement results were obtained (N=15).

[7] = High-temperature treatment (42° C., 1.5 hours)

COc1ccc([C@@H]2CC(=O)c3c(O)cc(O[C@@H]4O[C@H](CO[C@@H]5O[C@@H](C)[C@H](O)[C@@H](O)[C@H]5O)[C@@H](O)[C@H](O)[C@H]4O)cc3O2)cc1O [Hesperidin]
Root length (lettuce (Green Wave) [1]; High-temperature treatment (42° C., 1.5 hours), then 23° C. 2 days): 24.0 mm | Root length (lettuce (Green Wave) [1]; Normal cultivation): 25.1 mm | Root length (lettuce (Green Wave) [2]; [7]): 15.0 mm | Root length (lettuce (Green Wave) [2]; Normal cultivation): 22.2 mm | Germination rate, Increase rate (Cabbage (Okina) seeds; 100 ppm): 127.1% | Root length, Increase rate (Cabbage (Okina) seeds; 100 ppm): 189.7% | Germination rate, Increase rate (Cabbage (Okina) seeds; 1000 ppm): 150.3% | Root length, Increase rate (Cabbage (Okina) seeds; 1000 ppm): 224.6% | Root length, Average (Cabbage (Okina) seeds; 100 ppm): 43.6 mm | Root length, Average (Cabbage (Okina) seeds; 1000 ppm): 51.6 mm | Germination rate, Average (Cabbage (Okina) seeds; then soaked at 100 ppm): 66.2% | Germination rate, Average (Cabbage (Okina) seeds; then soaked at 1000 ppm): 78.3% | Fresh weight of above-ground part, Increase rate (lettuce (Green Wave) [3]; 100 ppm): 114.4% | Fresh weight of underground part, Increase rate (lettuce (Green Wave) [3]; 100 ppm): 122.8% | Fresh weight of above-ground part, Increase rate (lettuce (Green Wave) [3]; 1000 ppm): 109.1% | Fresh weight of underground part, Increase rate (lettuce (Green Wave) [3]; 1000 ppm): 93.9% | Fresh weight of above-ground part, Average (lettuce (Green Wave) [3]; drenching 100 ppm): 0.76 g | Fresh weight of underground part, Average (lettuce (Green Wave) [3]; drenching 100 ppm): 0.29 g | Fresh weight of above-ground part, Average (lettuce (Green Wave) [3]; drenching 1000 ppm): 0.72 g | Fresh weight of underground part, Average (lettuce (Green Wave) [3]; drenching 1000 ppm): 0.22 g | Fresh weight of above-ground part, Increase rate (Cabbage (Okina); 100 ppm): 118.0% | Fresh weight of underground part, Increase rate (Cabbage (Okina); 100 ppm): 130.6% | Fresh weight of above-ground part, Increase rate (Cabbage (Okina); 1000 ppm): 97.1% | Fresh weight of underground part, Increase rate (Cabbage (Okina); 1000 ppm): 103.2% | Fresh weight of above-ground part, Average (Cabbage (Okina); drenching 100 ppm): 0.87 g | Fresh weight of underground part, Average (Cabbage (Okina); drenching 100 ppm): 0.32 g | Fresh weight of above-ground part, Average (Cabbage (Okina); drenching 1000 ppm): 0.72 g | Fresh weight of underground part, Average (Cabbage (Okina); drenching 1000 ppm): 0.25 g | Number of sprouts, Average ([4]; 0.15 g/m^2, foliar spraying four times as wettable powder formulation containing 1% hesperidin): 111.33 number | Number of sprouts, Increase rate ([4]; 0.15 g/m^2): 189.8% | Number of sprouts, Average ([4]; 0.75 g/m^2, foliar spraying four times as wettable powder formulation containing 1% hesperidin): 112.00 number | Number of sprouts, Increase rate ([4]; 0.75 g/m^2): 190.9% | Fresh weight of above-ground part ([5]; Normal cultivation): 4.2 g | Fresh weight of above-ground part ([5]; Salt treatment (75 mM NaCl, 7 days)): 3.6 g | Increase/decrease of above-ground part (Wheat (Satonosora); 10 ppm): 123% | Increase/decrease of underground part (Wheat (Satonosora); 10 ppm): 107% | Increase/decrease of above-ground part (Wheat (Satonosora); 33 ppm): 116% | Increase/decrease of underground part (Wheat (Satonosora); 33 ppm): 104% | Weight of above-ground part FW (Wheat (Satonosora); drenching 10 ppm): 364.9 mg/individual | Weight of underground part FW (Wheat (Satonosora); drenching 10 ppm): 391.6 mg/individual | Weight of above-ground part FW (Wheat (Satonosora); drenching 33 ppm): 345.4 mg/individual | Weight of underground part FW (Wheat (Satonosora); drenching 33 ppm): 382.6 mg/individual | Root length, Average (tomato (Momotaro Home); 0.1 ppm): 49.89 mm | Root length, Increase rate (tomato (Momotaro Home); 0.1 ppm): 214.2% | Root length, Average (tomato (Momotaro Home); 1 ppm): 55.81 mm | Root length, Increase rate (tomato (Momotaro Home); 1 ppm): 239.6% | Root length (lettuce (Green Wave) [6]; [7]): 10.9 mm | Root length (lettuce (Green Wave) [6]; Normal cultivation): 19.2 mm
